Experimental data from patent US20060270631A1, “Methods for the treatment and prevention of angiogenic diseases” (priority 2005, published 2006).

System: human RECs
Assay: VEGF-stimulated proliferation of human RECs ([3H]thymidine incorporation)
Format: cell-based
Settings: VEGF 50 ng/mL, 12 hours + 2 hours [3H]thymidine, serum-starved human RECs
Method: FIG. 6. Effects of Compound II on VEGF-stimulated proliferation of RECs. Human RECs were serum-starved for 24 hours and then left untreated or incubated with VEGF (50 ng/mL) in the presence of the indicated concentration (in μM) of Compound II for 12 hours. [3H]Thymidine was then added and the cultures were incubated an additional 2 hours. The amount of [^3H]thymidine incorporated into DNA was determined. Values represent the mean±SD of duplicate samples in a typical experiment.
Cell proliferation assay. Cells were grown to confluence in 24-well tissue culture plates and serum-starved overnight as described above. Cells were then treated with 50 ng/mL of VEGF and varying concentrations of Compound II for 12 hours. At that time, 16 μCi of [3H]thymidine was added to each well, and the cultures were incubated for an additional 2 hours. The media was then removed by aspiration, the cells were washed twice with cold PBS, and 0.8 mL of ice-cold 10% trichloroacetic acid was added to each well. […] The samples were incubated at 37° C. for 30 minutes, scraped into scintillation vials, and the amount of ^3H in the recovered genomic DNA was quantified by scintillation counting.
We next evaluated the effects of VEGF on the proliferation of human RECs by measuring the effects of the growth factor of the incorporation of [^3H]thymidine into the DNA of serum-starved cells. […]

## Oc1ccc(Nc2nc(-c3ccc(Cl)cc3)cs2)cc1 [Compound II]
  concentration blocking the mitogenic response to VEGF: ≥ 1.3 µM
